Results: ChEMBL document CHEMBL1201862, “PubChem BioAssay data set” (2004)
Active and inactive are the calls of the source.

Assays:
[1] = restored growth of temperature-sensitive Burl-1 yeast – whole organism, S. cerevisiae, Burl-1 ts mutant, luminescence, counter-screen for SUMOylation pathway inhibitor project, dose response (AID 463199); assay type: functional
[2] = molecular target: T1, Dual specificity protein phosphatase 6 (Rattus norvegicus, UniProt Q64346); assay: inhibition of rat DUSP6 enzyme activity – biochemical, in vitro, primary screen (AID 425)
T1 sequence (Q64346 whole entry): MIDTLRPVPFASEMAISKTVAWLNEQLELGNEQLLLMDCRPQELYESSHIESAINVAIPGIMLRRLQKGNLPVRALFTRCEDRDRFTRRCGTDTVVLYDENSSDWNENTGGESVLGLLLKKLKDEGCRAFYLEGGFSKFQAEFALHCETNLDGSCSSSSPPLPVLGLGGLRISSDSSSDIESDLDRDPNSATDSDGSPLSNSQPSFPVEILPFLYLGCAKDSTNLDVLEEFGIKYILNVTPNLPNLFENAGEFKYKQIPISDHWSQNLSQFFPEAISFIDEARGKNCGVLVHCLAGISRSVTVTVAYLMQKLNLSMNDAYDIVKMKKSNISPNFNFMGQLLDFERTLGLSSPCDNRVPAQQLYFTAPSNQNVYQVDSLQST

[3] = molecular target: T2, Dual specificity protein phosphatase 3 (Homo sapiens, UniProt P51452); assay: VHR1 phosphatase inhibitors, biochemical (AID 1878)
[4] = molecular target: T3, Voltage-gated N-type calcium channel alpha-1B subunit/Amyloid beta A4 precursor protein-binding family A member 1 (Homo sapiens, UniProt Q00975+Q02410); assay type: protein assay
[5] = molecular target: T3, Voltage-gated N-type calcium channel alpha-1B subunit/Amyloid beta A4 precursor protein-binding family A member 1; assay type: protein assay; remark: listed apart in the source
[6] = molecular target: T2, Dual specificity protein phosphatase 3; assay: VHR1 phosphatase inhibitors, primary screen, biochemical, absorbance, uHTS (AID 1654)
[7] = molecular target: E3 ubiquitin-protein ligase XIAP (Homo sapiens, UniProt P98170); assay: Counter Screen using XIAP-Bir3 for Chemical Antagonists of Bir1/2 domains of IAP-family anti-apoptotic proteins. [Related pubchem assays (depositor defined):AID1018, AID1449, AID1514, AID1638, AID1749, AID1750, AID488957, AID488963]
Phosphomannomutase 2 = Phosphomannomutase 2 (Homo sapiens, UniProt O15305); assay: Counter screen SAR assay for PMM2 inhibitors via a fluorescence intensity assay. [Related pubchem assays (depositor defined):AID1545, AID1574]
[8] = molecular target: T4, Mannose-6-phosphate isomerase (Homo sapiens, UniProt P34949); assay: phosphomannose isomerase inhibition – biochemical, fluorescence intensity, confirmation (AID 1535)
T4 sequence (P34949 whole entry): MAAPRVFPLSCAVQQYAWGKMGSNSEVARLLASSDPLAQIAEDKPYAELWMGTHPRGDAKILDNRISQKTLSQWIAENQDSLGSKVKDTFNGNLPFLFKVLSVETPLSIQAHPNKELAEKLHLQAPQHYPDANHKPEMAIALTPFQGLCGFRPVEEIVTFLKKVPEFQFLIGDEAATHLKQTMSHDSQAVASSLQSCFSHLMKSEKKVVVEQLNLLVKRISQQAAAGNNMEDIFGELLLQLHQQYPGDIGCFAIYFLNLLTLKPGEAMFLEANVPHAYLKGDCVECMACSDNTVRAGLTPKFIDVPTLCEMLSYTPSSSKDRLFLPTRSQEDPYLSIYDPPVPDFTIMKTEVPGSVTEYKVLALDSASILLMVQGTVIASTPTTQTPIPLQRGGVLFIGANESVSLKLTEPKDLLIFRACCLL

[9] = molecular target: Intestinal-type alkaline phosphatase (Mus musculus, UniProt P24822); assay: PubChem AID 488785; assay type: functional
[10] = molecular target: Intestinal-type alkaline phosphatase (Homo sapiens, UniProt P09923); assay: inhibition of human intestinal alkaline phosphatase – biochemical, dose response (AID 488876); assay type: functional
[11] = molecular target: T5, Alkaline phosphatase, tissue-nonspecific isozyme (Homo sapiens, UniProt P05186); assay: TNAP enzyme inhibition by screening hits, dose response, selectivity assay for mouse IAP inhibitor project, biochemical, human TNAP, uHTS hits (AID 488906); assay type: functional
T5 sequence (P05186 whole entry): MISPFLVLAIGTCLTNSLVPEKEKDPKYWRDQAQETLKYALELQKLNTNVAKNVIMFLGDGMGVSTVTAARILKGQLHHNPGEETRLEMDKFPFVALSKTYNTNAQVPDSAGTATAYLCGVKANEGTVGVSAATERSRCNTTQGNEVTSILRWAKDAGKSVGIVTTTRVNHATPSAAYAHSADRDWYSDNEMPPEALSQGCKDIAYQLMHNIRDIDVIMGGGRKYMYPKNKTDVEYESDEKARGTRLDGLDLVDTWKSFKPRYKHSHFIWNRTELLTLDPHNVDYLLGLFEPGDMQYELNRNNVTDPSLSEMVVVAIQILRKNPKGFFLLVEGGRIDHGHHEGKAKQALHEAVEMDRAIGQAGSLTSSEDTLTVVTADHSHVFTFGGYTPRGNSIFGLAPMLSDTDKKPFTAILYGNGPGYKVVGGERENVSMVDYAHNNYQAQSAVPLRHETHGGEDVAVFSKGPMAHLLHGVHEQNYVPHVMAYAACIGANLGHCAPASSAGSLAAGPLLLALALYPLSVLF

HEK293 = assay: cells; settings: Homo sapiens;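 also: cells exposed to compound for 14 hours overnight before viability readout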
[12] = molecular target: T6, Nucleotide-binding oligomerization domain-containing protein 1 (Homo sapiens, UniProt Q9Y239); assay: blockers of NOD1 pathway activity – revised, SAR follow-up (AID 2333); assay type: functional
T6 sequence (Q9Y239 whole entry): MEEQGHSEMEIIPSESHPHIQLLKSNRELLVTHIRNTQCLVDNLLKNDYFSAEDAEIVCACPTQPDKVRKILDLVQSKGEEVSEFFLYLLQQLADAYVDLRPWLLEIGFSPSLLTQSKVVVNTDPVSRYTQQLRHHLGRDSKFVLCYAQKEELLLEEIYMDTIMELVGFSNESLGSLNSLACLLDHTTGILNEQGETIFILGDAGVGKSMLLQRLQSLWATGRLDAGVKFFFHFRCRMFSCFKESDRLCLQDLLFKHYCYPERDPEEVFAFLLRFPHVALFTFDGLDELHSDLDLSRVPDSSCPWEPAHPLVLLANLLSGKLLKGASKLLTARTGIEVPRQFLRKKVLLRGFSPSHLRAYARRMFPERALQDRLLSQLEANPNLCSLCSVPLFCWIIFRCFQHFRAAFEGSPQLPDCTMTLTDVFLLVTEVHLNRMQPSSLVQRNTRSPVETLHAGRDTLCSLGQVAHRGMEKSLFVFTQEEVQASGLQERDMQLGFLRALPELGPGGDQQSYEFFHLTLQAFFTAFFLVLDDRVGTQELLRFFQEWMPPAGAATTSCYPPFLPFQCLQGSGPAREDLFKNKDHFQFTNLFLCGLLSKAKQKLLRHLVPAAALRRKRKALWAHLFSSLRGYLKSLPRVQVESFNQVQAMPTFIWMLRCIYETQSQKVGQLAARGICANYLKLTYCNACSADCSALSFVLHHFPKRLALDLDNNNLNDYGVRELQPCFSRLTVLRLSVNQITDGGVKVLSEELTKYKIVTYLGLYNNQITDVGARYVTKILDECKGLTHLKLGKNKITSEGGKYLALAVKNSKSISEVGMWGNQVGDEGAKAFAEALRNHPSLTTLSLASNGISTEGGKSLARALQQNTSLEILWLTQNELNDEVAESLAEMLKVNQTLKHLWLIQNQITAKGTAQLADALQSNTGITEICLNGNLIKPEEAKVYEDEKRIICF

Tumor necrosis factor = Tumor necrosis factor (Homo sapiens, UniProt P01375); assay: analog potency on TNFa NF-kB signaling – cell-based, revised, SAR follow-up (AID 2337); assay type: functional
[13] = molecular target: Potassium voltage-gated channel subfamily KQT member 2 (Rattus norvegicus, UniProt O88943); assay: rat KCNQ2 current potentiators – automated patch clamp, KCNQ2-CHO cells, SAR follow-up (AID 493113); assay type: functional
CAAX prenyl protease 2 = CAAX prenyl protease 2 (Saccharomyces cerevisiae S288c, UniProt Q03530); assay type: biochemical
CAAX prenyl protease 1 = CAAX prenyl protease 1 (Saccharomyces cerevisiae S288c, UniProt P47154); assay: yeast CAAX protease Ste24 inhibition – biochemical, S. cerevisiae, plate reader, cherry-pick, dose response (AID 488815)
Chain of CAAX prenyl protease 1 (P47154 whole entry): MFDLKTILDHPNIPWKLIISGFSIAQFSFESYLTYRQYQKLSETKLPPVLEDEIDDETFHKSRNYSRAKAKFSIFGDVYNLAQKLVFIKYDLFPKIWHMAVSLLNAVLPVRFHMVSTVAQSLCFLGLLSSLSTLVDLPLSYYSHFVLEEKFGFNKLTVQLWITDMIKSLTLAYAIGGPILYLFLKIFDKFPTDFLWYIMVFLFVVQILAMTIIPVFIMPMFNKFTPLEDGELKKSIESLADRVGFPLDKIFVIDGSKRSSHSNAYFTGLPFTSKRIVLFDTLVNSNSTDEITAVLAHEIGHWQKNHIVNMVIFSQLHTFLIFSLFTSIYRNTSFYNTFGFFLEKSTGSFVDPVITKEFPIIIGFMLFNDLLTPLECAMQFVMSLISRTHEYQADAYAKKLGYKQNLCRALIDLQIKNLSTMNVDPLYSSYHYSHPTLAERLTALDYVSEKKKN

T2 sequence (P51452 whole entry): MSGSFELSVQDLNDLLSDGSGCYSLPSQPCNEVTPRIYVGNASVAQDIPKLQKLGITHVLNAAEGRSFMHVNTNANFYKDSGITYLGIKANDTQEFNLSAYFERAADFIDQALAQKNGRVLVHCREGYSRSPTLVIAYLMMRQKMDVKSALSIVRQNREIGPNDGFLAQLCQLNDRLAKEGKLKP
T3 sequence (Q00975 whole entry): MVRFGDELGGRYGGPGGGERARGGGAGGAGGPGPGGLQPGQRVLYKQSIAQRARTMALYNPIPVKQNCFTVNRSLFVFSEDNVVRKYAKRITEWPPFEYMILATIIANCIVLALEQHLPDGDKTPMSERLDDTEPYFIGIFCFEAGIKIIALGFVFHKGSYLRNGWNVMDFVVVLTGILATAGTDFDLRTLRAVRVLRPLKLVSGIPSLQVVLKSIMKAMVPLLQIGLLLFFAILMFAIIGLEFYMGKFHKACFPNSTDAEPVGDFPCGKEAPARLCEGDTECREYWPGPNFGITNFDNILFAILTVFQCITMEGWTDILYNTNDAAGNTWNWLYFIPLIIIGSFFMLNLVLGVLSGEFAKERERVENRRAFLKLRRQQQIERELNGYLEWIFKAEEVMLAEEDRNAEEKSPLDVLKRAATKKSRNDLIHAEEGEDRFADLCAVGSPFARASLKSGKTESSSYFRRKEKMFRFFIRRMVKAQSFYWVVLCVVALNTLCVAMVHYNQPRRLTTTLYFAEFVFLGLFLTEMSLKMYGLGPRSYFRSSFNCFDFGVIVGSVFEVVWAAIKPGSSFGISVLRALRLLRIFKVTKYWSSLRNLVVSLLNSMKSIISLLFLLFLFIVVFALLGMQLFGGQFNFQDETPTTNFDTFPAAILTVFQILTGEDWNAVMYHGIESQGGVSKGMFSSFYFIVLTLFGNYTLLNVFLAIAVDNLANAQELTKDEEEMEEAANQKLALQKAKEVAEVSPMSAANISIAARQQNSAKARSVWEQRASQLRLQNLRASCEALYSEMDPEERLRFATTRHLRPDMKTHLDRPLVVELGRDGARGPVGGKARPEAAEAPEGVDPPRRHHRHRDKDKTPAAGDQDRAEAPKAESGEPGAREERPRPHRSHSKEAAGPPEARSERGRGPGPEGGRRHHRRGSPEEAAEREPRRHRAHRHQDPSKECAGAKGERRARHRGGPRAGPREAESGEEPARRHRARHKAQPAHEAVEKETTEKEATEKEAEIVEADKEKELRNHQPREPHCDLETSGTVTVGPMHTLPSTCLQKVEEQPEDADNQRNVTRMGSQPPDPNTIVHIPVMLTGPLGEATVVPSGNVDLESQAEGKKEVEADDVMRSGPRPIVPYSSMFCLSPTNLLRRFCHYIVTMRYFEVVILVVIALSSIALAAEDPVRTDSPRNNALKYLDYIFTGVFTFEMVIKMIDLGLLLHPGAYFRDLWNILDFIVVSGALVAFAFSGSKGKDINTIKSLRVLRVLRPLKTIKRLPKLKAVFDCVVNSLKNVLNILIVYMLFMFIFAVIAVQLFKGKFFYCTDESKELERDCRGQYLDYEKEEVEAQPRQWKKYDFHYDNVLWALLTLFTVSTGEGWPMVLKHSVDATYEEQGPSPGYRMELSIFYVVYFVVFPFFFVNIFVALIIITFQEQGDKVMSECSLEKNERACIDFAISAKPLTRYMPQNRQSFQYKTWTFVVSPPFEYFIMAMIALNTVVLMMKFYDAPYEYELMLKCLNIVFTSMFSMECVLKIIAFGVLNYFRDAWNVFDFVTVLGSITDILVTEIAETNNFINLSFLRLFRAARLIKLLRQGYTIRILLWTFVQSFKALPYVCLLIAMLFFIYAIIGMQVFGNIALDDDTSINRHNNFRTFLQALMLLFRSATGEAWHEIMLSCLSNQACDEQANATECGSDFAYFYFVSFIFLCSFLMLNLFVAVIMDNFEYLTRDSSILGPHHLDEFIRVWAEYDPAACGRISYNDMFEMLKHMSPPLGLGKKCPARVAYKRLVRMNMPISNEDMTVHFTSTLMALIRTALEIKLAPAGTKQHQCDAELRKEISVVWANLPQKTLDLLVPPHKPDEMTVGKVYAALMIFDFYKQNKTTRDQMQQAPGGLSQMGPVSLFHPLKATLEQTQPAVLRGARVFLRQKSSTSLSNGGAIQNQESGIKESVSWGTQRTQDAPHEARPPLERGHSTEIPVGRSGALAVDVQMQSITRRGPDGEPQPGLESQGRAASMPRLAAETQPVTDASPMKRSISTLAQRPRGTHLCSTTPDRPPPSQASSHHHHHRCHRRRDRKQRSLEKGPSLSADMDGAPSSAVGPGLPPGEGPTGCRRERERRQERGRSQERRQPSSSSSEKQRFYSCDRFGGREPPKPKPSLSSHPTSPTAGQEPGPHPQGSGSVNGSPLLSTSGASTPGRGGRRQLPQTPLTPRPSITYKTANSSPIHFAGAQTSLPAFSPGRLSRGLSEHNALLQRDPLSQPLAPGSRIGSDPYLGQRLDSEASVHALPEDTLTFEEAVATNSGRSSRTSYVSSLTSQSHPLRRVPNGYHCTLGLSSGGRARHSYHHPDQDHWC
T3 sequence (Q02410 whole entry): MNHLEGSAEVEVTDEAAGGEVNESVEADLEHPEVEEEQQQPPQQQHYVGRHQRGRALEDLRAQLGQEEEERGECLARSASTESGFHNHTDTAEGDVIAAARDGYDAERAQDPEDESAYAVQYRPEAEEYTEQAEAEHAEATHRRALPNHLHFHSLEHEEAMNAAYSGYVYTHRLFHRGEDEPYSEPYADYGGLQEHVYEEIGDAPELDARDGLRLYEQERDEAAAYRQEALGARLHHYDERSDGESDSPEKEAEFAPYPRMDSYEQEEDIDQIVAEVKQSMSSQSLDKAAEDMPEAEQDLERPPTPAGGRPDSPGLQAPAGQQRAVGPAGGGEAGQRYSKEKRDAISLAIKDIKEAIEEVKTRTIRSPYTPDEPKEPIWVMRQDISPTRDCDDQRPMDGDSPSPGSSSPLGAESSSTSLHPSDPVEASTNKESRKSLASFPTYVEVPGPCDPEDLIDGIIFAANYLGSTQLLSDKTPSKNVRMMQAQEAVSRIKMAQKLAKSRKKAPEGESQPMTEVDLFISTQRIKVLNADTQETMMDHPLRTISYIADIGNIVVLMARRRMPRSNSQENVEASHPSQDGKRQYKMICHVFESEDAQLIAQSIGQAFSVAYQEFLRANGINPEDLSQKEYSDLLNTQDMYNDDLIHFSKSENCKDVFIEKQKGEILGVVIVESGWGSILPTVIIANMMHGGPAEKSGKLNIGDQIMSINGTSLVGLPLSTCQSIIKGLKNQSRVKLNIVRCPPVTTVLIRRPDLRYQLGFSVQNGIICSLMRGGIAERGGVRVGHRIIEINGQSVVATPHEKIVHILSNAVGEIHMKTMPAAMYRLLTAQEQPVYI
Chain of Tumor necrosis factor (P01375 whole entry): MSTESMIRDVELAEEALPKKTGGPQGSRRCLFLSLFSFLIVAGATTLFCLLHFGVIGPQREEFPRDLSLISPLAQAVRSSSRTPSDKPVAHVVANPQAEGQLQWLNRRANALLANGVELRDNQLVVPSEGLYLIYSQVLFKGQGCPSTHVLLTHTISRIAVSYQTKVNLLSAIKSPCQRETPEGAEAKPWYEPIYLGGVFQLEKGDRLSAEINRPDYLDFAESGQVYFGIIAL
Chain of CAAX prenyl protease 2 (Q03530 whole entry): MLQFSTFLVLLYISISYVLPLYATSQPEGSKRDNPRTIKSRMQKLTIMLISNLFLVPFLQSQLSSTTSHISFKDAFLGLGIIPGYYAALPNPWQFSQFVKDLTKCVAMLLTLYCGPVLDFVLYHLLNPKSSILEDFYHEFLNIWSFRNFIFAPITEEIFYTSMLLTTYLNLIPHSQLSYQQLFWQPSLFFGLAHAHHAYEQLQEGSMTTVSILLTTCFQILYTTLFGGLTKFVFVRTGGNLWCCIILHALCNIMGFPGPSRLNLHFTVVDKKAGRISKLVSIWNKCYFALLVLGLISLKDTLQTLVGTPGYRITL
Chain of Phosphomannomutase 2 (O15305 whole entry): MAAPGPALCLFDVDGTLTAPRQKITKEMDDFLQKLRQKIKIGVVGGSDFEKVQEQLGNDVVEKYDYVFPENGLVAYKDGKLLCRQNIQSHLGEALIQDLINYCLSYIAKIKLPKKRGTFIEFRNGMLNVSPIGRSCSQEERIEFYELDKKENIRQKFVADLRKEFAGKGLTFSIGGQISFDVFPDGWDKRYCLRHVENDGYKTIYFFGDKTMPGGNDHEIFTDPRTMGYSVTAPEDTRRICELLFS

**Q.** For `COc1ccc(Cl)cc1N(C(=O)c1ccco1)C(C(=O)NC1CCCC1)c1ccncc1` (stereo not drawn), which AC50 [1] is on record?
**A.** 104 µM (active)

**Q.** For `CCOC(=O)C1=C(C)N=c2s/c(=C\c3ccc(OCC(=O)O)cc3)c(=O)n2C1c1ccc(Cl)cc1` (stereo not drawn), which IC50 [2] is on record?
**A.** > 158 µM (not active)

**Q.** What about the IC50 [3] of the same compound?
**A.** 8.8 µM (active)

**Q.** And the IC50 [4]?
**A.** > 50 µM (inactive)

**Q.** What about the IC50 [5] of the same compound?
**A.** 33.7 µM (active)

**Q.** What about the IC50 [6] of the same compound?
**A.** 11.3 µM (active)

**Q.** What about the IC50 [7] of the same compound?
**A.** > 20 µM (inactive)

**Q.** Which IC50 (Phosphomannomutase 2) does the source give for `FC(F)(F)Oc1cccc(/N=c2\ssnc2Cl)c1` here?
**A.** > 100 µM (inactive)

**Q.** What about the IC50 [8] of the same compound?
**A.** 27.5 µM (active)

**Q.** Which IC50 [9] does the source give for `Cc1cc(Cn2nc(-c3ccccc3)cc2C(=O)NCc2cccc(C(F)(F)F)c2)on1` here?
**A.** 3.4 µM (active)

**Q.** What about the IC50 [10] of the same compound?
**A.** > 100 µM (inactive)

**Q.** What about the IC50 [11] of the same compound?
**A.** 31 µM (active)

**Q.** Which IC50 (HEK293) does the source give for `Cc1ccc([N+](=O)[O-])cc1NC(=O)c1cc(Cl)c2ccccc2c1O` here?
**A.** 1.17 µM (active)

**Q.** And the IC50 [12]?
**A.** 0.17 µM (active)

**Q.** And the IC50 (Tumor necrosis factor)?
**A.** 0.206 µM (active)

**Q.** Which EC50 [13] does the source give for `Cc1cc(C)c(NC(=O)CCc2ccccc2)c(C)c1` here?
**A.** 1.6 µM (active)

**Q.** For `CCOc1cccc(-c2c(C(=O)N/N=C/c3c(F)cccc3Cl)nnn2-c2nonc2N)c1`, which AC50 (CAAX prenyl protease 2) is on record?
**A.** 9 µM (active)

**Q.** What about the AC50 (CAAX prenyl protease 1) of the same compound?
**A.** > 100 µM (inactive)
